Measurements from patent US8927500B2, “Peptidomimetic macrocycles” (Aileron Therapeutics, Inc., priority 2012, dated 2015).
Read-outs that look alike come from different tables or passages of the source. Where a SMILES comes first, the peptide text is derived from it. Bridges are numbered along the chain shown (N, C = ends). [ ]: non-standard residue; d: D form. The star is where a group is joined. 5TAMRA = CN(C)c1ccc2c(c1)Oc1cc(N(C)C)ccc1C21OC(=O)c2cc(C(=O)*)ccc21; dPhe(4-CF3) = N[C@H](Cc1ccc(C(F)(F)F)cc1)C(=O)O; pY = N[C@@H](Cc1ccc(OP(=O)(O)O)cc1)C(=O)O; R8 = C=CCCCCCC[C@@](C)(N)C(=O)O; S8 = C=CCCCCCC[C@](C)(N)C(=O)O; Cba = N[C@@H](CC1CCC1)C(=O)O; R5 = C=CCCC[C@@](C)(N)C(=O)O; S5 = C=CCCC[C@](C)(N)C(=O)O; βAla = NCCC(=O)O

Legend:
Caspase 3 = Caspase 3 detection assay in SJSA1 cells; type: cell-based; details: 48 h, Caspase 3 activation over DMSO-treated cells; for caspase 3 uM: 3 uM peptide; for caspase 10 uM: 10 uM peptide; for caspase 30 uM: 30 uM peptide
MDM2 = MDM2 (Homo sapiens, UniProt Q00987); assay: Competitive fluorescence polarization assay for MDM2; type: binding
Sequence of MDM2 (Q00987 1-125): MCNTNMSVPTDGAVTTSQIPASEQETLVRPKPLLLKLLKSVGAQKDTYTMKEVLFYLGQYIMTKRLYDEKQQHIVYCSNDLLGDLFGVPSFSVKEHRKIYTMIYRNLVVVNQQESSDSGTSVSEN
Description: Dilute 1 mM (in 100% DMSO) of FAM labeled linear peptide with DMSO to 100 μM (dilution 1:10). Then, dilute from 100 μM to 10 μM with water (dilution 1:10) and then dilute with FP buffer from 10 μM to 40 nM (dilution 1:250). This is the working solution which will be a 10 nM concentration in well (dilution 1:4). […] Then, dilute from 5 mM to 500 μM with H2O (dilution 1:10) and then dilute with FP buffer from 500 μM to 20 μM (dilution 1:25).
Dilute 1 mM (in 100% DMSO) of FAM labeled linear peptide with DMSO to 100 μM (dilution 1:10). Then, dilute from 100 μM to 10 μM with water (dilution 1:10) and then dilute with FP buffer from 10 μM to 40 nM (dilution 1:250). This is the working solution which will be a 10 nM concentration in well (dilution 1:4). […] Dilute 10 mM (in 100% DMSO) with DMSO to 5 mM (dilution 1:2). Then, dilute from 5 mM to 500 μM with H2O (dilution 1:10) and then dilute with FP buffer from 500 μM to 20 μM (dilution 1:25). […] Transfer 10 μl of serial diluted unlabeled peptides to each well which is filled with 20 μl of 300 nM of protein. • 7. Add 10 μl of 10 nM (4×) of FAM labeled peptide into each well and incubate for 3 hr to read.

MDMX = target: T1, MDMX (Homo sapiens, UniProt O15151); assay: Competitive fluorescence polarization assay for MDMX; type: binding; details: competitive FP assay; for IC50: read-out: IC50 (MDMX)
T1 sequence (O15151 1-125): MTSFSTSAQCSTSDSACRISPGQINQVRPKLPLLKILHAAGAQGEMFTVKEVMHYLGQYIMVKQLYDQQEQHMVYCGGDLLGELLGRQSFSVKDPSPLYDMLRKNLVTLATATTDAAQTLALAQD

[1] = competitive FP assay, MDM2, read-out: IC50 (MDM2)

| SMILES | IC50 (MDM2; [1]) | IC50 (MDMX) | other results |
| --- | --- | --- | --- |
| CC(=O)N[C@@H](CC(C)C)C(=O)N[C@H](C(=O)N[C@@H](Cc1ccccc1)C(=O)N[C@]1(C)CCCCCCC=CCCC[C@@](C)(C(=O)N[C@@H](C)C(=O)N[C@H](C(=O)NCC(N)=O)C(C)C)NC(=O)[C@H](CC(C)C)NC(=O)[C@H](CCC(N)=O)NC(=O)[C@H](C)NC(=O)[C@H](Cc2c[nH]c3ccccc23)NC(=O)[C@H](Cc2ccc(O)cc2)NC(=O)[C@H](C)NC1=O)[C@@H](C)O (single isomer, unassigned) [compound 109] | – | – | caspase 3 uM (Caspase 3): 4; caspase 10 uM (Caspase 3): 16; caspase 30 uM (Caspase 3): 25 |
| CC(=O)N[C@@H](C)C(=O)N[C@@H](C)C(=O)N[C@@H](CC(C)C)C(=O)N[C@H](C(=O)N[C@@H](Cc1ccccc1)C(=O)N[C@]1(C)CCCCCCC=CCCC[C@@](C)(C(=O)N[C@@H](CO)C(=O)N[C@@H](C)C(=O)N[C@@H](C)C(=O)N[C@@H](C)C(=O)N[C@H](C)C(N)=O)NC(=O)[C@H](CC2CCC2)NC(=O)[C@H](CCC(N)=O)NC(=O)[C@H](C)NC(=O)[C@H](Cc2c[nH]c3ccccc23)NC(=O)[C@H](Cc2ccc(O)cc2)NC(=O)[C@H](CCC(=O)O)NC1=O)[C@@H](C)O (single isomer, unassigned) [compound 358] | – | – | caspase 0.3 uM (Caspase 3; 0.3 uM peptide): 1; caspase 1 uM (Caspase 3; 1 uM peptide): 2; caspase 3 uM (Caspase 3): 3; caspase 10 uM (Caspase 3): 6; caspase 30 uM (Caspase 3): 24 |
| CC(=O)N[C@@H](CC(C)C)C(=O)N[C@H](C(=O)N[C@@H](Cc1ccccc1)C(=O)N[C@]1(C)CCCCCCC=CCCC[C@@](C)(C(=O)N[C@@H](C)C(=O)N[C@@H](C)C(=O)N[C@@H](C)C(=O)N[C@@H](C)C(=O)N[C@@H](C)C(=O)N[C@H](C)C(N)=O)NC(=O)[C@H](CC(C)C)NC(=O)[C@H](CCC(N)=O)NC(=O)[C@H](C)NC(=O)[C@H](Cc2c[nH]c3ccccc23)NC(=O)[C@H](Cc2ccc(OP(=O)(O)O)cc2)NC(=O)[C@H](CCC(=O)O)NC1=O)[C@@H](C)O [compound 615] (Ac-LTF[R8]E[pY]WAQL[S5]AAAAA[dA]-NH2; staple 4-11) | – | – | Ki (MDM2; Ki (MDM2), competitive FP assay, MDM2): < 10 nM; Ki (MDMX; Ki (MDMX)): < 10 nM |
| CC(C)C[C@H](NC(=O)CCNC(=O)c1ccc2c(c1)C(=O)OC21c2ccc(N(C)C)cc2Oc2cc(N(C)C)ccc21)C(=O)N[C@H](C(=O)N[C@@H](C)C(=O)N[C@]1(C)CCCCCCC=CCCC[C@@](C)(C(=O)N[C@@H](CO)C(=O)N[C@@H](C)C(=O)N[C@@H](C)C(N)=O)NC(=O)[C@H](CC2CCC2)NC(=O)[C@H](CCC(N)=O)NC(=O)[C@H](C)NC(=O)[C@H](Cc2c[nH]c3ccccc23)NC(=O)[C@H](Cc2ccc(O)cc2)NC(=O)[C@H](CCC(=O)O)NC1=O)[C@@H](C)O [compound 687] ({5TAMRA-βAla}-LTA[R8]EYWAQ[Cba][S5]SAA-NH2; staple 4-11) | – | – | Ki (MDM2; competitive FP assay, MDM2, read-out: Ki (MDM2)): 100 to 1000 nM; Ki (MDMX; read-out: Ki (MDMX)): 100 to 1000 nM |
| CC(=O)N[C@@H](C(=O)N[C@]1(C)CCCC=CCCC[C@](C)(C(=O)N[C@H](Cc2ccc(C(F)(F)F)cc2)C(=O)N[C@H](CCC(=O)O)C(=O)N[C@H](CCCCN)C(=O)N[C@H](CC(C)C)C(=O)N[C@H](CC(C)C)C(=O)N[C@H](CCCNC(=N)N)C(N)=O)NC(=O)[C@@H](C)NC(=O)[C@@H](Cc2ccc(O)cc2)NC(=O)[C@@H](Cc2c[nH]c3ccccc23)NC1=O)[C@H](C)O [compound 752] (Ac-[dT][R5][dW][dY][dA][R5][dPhe(4-CF3)][dE][dK][dL][dL][dR]-NH2; staple 2-6) | 100 to 1000 nM | > 1000 nM | – |
| CC(=O)N[C@@H](C(=O)N[C@H](C)C(=O)N[C@H](Cc1c[nH]c2ccccc12)C(=O)N[C@H](Cc1ccc(O)cc1)C(=O)N[C@]1(C)CCCC=CCCC[C@](C)(C(=O)N[C@H](CC(C)C)C(=O)N[C@H](CC(C)C)C(=O)N[C@H](CCCNC(=N)N)C(N)=O)NC(=O)[C@@H](CCC(=O)O)NC(=O)[C@@H](Cc2ccc(C(F)(F)F)cc2)NC(=O)[C@@H](CC(N)=O)NC1=O)[C@H](C)O [compound 753] (Ac-[dT][dA][dW][dY][R5][dN][dPhe(4-CF3)][dE][R5][dL][dL][dR]-NH2; staple 5-9) | 10 to 100 nM | > 1000 nM | – |
| CC(=O)N[C@@H](C(=O)N[C@H](C)C(=O)N[C@H](Cc1c[nH]c2ccccc12)C(=O)N[C@H](Cc1ccc(O)cc1)C(=O)N[C@H](C)C(=O)N[C@]1(C)CCCC=CCCC[C@](C)(C(=O)N[C@H](CC(C)C)C(=O)N[C@H](CCCNC(=N)N)C(N)=O)NC(=O)[C@@H](CCCCN)NC(=O)[C@@H](CCC(=O)O)NC(=O)[C@@H](Cc2ccc(C(F)(F)F)cc2)NC1=O)[C@H](C)O [compound 754] | 100 to 1000 nM | > 1000 nM | – |
| CC(=O)N[C@@H](C(=O)N[C@H](C)C(=O)N[C@H](Cc1c[nH]c2ccccc12)C(=O)N[C@H](Cc1ccc(O)cc1)C(=O)N[C@H](C)C(=O)N[C@H](CC(N)=O)C(=O)N[C@H](Cc1ccc(C(F)(F)F)cc1)C(=O)N[C@H](CCC(=O)O)C(=O)N[C@]1(C)CCCC=CCCC[C@](C)(C(=O)N[C@H](C)C(N)=O)NC(=O)[C@@H](CCCNC(=N)N)NC(=O)[C@@H](CC(C)C)NC(=O)[C@@H](CC(C)C)NC1=O)[C@H](C)O [compound 755] (Ac-[dT][dA][dW][dY][dA][dN][dPhe(4-CF3)][dE][R5][dL][dL][dR][R5][dA]-NH2; staple 9-13) | < 10 nM | > 1000 nM | – |
| CC(=O)N[C@@H](C(=O)N[C@@]1(C)CCCCCCC=CCCC[C@](C)(C(=O)N[C@H](CC(C)C)C(=O)N[C@H](CC(C)C)C(=O)N[C@H](CCCNC(=N)N)C(N)=O)NC(=O)[C@@H](CCC(=O)O)NC(=O)[C@@H](Cc2ccc(C(F)(F)F)cc2)NC(=O)[C@@H](CC(N)=O)NC(=O)[C@@H](C)NC(=O)[C@@H](Cc2ccc(O)cc2)NC(=O)[C@@H](Cc2c[nH]c3ccccc23)NC1=O)[C@H](C)O [compound 756] (Ac-[dT][S8][dW][dY][dA][dN][dPhe(4-CF3)][dE][R5][dL][dL][dR]-NH2; staple 2-9) | 10 to 100 nM | > 1000 nM | – |
| CC(=O)N[C@@H](C(=O)N[C@H](C)C(=O)N[C@H](Cc1c[nH]c2ccccc12)C(=O)N[C@H](Cc1ccc(O)cc1)C(=O)N[C@@]1(C)CCCCCCC=CCCC[C@](C)(C(=O)N[C@H](C)C(N)=O)NC(=O)[C@@H](CC(C)C)NC(=O)[C@@H](CC(C)C)NC(=O)[C@@H](CCCCN)NC(=O)[C@@H](CCC(=O)O)NC(=O)[C@@H](Cc2ccc(C(F)(F)F)cc2)NC(=O)[C@@H](CC(N)=O)NC1=O)[C@H](C)O [compound 757] (Ac-[dT][dA][dW][dY][S8][dN][dPhe(4-CF3)][dE][dK][dL][dL][R5][dA]-NH2; staple 5-12) | – | > 1000 nM | IC50 (MDM2; IC50 (MDM2)): < 10 nM |
| CC(=O)N[C@@H](C(=O)N[C@H](C)C(=O)N[C@H](Cc1c[nH]c2ccccc12)C(=O)N[C@H](Cc1ccc(O)cc1)C(=O)N[C@H](C)C(=O)N[C@@]1(C)CCCCCCC=CCCC[C@](C)(C(=O)N[C@H](C)C(N)=O)NC(=O)[C@@H](CCCNC(=N)N)NC(=O)[C@@H](CC(C)C)NC(=O)[C@@H](CC(C)C)NC(=O)[C@@H](CCCCN)NC(=O)[C@@H](CCC(=O)O)NC(=O)[C@@H](Cc2ccc(C(F)(F)F)cc2)NC1=O)[C@H](C)O [compound 758] (Ac-[dT][dA][dW][dY][dA][S8][dPhe(4-CF3)][dE][dK][dL][dL][dR][R5][dA]-NH2; staple 6-13) | 10 to 100 nM | > 1000 nM | – |
